# Laboratory results reported in US20070270408A1, “Pharmaceutical use of substituted pyrazolo[1,5-a]pyrimidines” (Novo Nordisk A/S, priority 2003, published 2007).
# Target: T1, h-11βHSD1 (Homo sapiens, UniProt P28845)
# T1 construct: made in house
# Assay: 11βHSD1 enzyme assay (SPA)
# Type: biochemical
# Details: yeast extract with h-11βHSD1, 120 nM 3H-cortisone, 4 mM β-NADPH, 60 min at 30° C.
# Description: Pharmacological Methods 11βHSD1 Enzyme Assay Materials
# ^3H-cortisone and anti-rabbit Ig coated scintillation proximity assay (SPA) beads were purchased from Amersham Pharmacia Biotech, β-NADPH was from Sigma and rabbit anti-cortisol antibodies were from Fitzgerald. An extract of yeast transformed with h-11βHSD1 (Hult et al., FEBS Lett, 441, 25 (1998)) was used as the source of enzyme. The test compounds were dissolved in DMSO (10 mM). All dilutions were performed in a buffer containing 50 mM TRIS-HCl (Sigma Chemical Co), 4 mM EDTA (Sigma Chemical Co), 0.1% BSA (Sigma Chemical Co), 0.01% Tween-20 (Sigma Chemical Co) and 0.005% bacitracin (Novo Nordisk A/S), pH=7.4. Optiplate 96 wells plates were supplied by Packard. The amount of ^3H-cortisol bound to the SPA beads was measured on TopCount NXT, Packard.
# h-11βHSD1, 120 nM ^3H-cortisone, 4 mM β-NADPH, antibody (1:200), serial dilutions of test compound and SPA particles (2 mg/well) were added to the wells. The reaction was initiated by mixing the different components and was allowed to proceed under shaking for 60 min at 30° C. […] Data was analysed using GraphPad Prism software.
# T1 sequence (P28845 whole entry): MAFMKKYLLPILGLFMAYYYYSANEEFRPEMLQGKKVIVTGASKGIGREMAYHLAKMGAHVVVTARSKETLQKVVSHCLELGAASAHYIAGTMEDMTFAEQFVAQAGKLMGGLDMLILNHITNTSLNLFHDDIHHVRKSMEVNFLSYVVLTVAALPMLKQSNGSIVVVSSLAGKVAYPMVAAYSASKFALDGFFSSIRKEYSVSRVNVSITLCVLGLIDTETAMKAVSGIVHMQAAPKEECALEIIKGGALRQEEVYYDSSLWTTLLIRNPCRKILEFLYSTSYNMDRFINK
row,IC50 [nM],SMILES
1,4700,"Cc1cc(C(F)(F)F)n2nc(C(=O)N3CCCCC3)cc2n1 [Example 3, (5-methyl-7-trifluoromethyl-pyrazolo[1,5-a]pyrimidin-2-yl)-(piperidin-1-yl)methanone]"
2,340,Cc1cc(-c2ccccc2)n2nc(C(=O)N(C)C3CCCCC3)cc2n1 [Example 4]
